Assay results reported in patent publication US5739121A, “Fluorocyclosaccharide drug delivery systems” (University of Alberta, priority 1993, dated 1998).

Legend:
[1] = Biodistribution of 6-F3 βCD at 15 minutes after a single intravenous dose; format: in vivo, BALB/C mouse; details: mouse
Description: (§1) A Bruker AM-300 (7.05 Tesla, 282.39 Mhz) and a Bruker CXP-100 (2.35 Telsa, 94.26 Mhz, 40 cm. bore) spectrometer were used for ^19 F NMR spectroscopy. The CXP-100 spectrometer was used with a 20 mm diameter, three turn horizontal coil. The biodistribution and excretion study of Example 4 was performed on the CXP-100 spectrometer, while ^1 H, ^13 C and ^19 F NMR spectra for synthesized compounds, blood, urine and extracts of liver were obtained using the Bruker AM-300 instrument. The ^19 F NMR were acquired over a spectral width of 70.0 ppm (between +60.0 and -10.0 ppm). The number of scans varied from 2.5 k to 45 k scans depending on the size of biological samples. An aqueous solution of chromium acetate (90 μL; 0.1M) was used as a relaxation agent to enhance the S/N ratio. Exponential line broadening of 0-40 Hz was imposed on the data prior to Fourier transformation. An aqueous solution of potassium fluoride (5 μL; 0.2M) was used as an internal standard during acquisition of ^19 F NMR spectra while ^1 H and ^13 C NMR spectra were locked on deuterium. D2 O was used as a solvent for samples of blood, urine and liver extract) which appeared at δ4.68 ppm (^1 H NMR spectra) with respect to tetramethylsilane. The resolution limits for ^1 H, ^13 C and ^19 F were observed between 0.5-1.1, 2.0-3.0 and 1.3-20.0 Hz, respectively. The chemical shifts are reported in δ ppm.
6-F3 βCD (90 mg/ml in water) was administered to a BALB/C mouse by intravenous injection through the tail vein, at a dose of 13.5 mg 6-F3 βCD per mouse. The mouse was placed in a beaker layered with filter paper to absorb the urine excreted during the experiment. 15 minutes after administration of the drug complex, blood was collected by cardiac puncture, the mouse was sacrificed by euthanasia in dry ice and the desired organs were collected by dissection. All samples were immediately frozen and held frozen until NMR studies.

[2] = Metabolic degradation after intravenous injection of 6-F3 βCD; format: in vivo, BALB/C mouse; details: mouse, i.v. injection, over the first fifteen minutes; 15 min
Description: as §1, with “ppm. […]” for “ppm.”

O[C@@H]1[C@@H](O)[C@H]2O[C@H]3[C@H](O)[C@@H](O)[C@@H](O[C@H]4[C@H](O)[C@@H](O)[C@@H](O[C@H]5[C@H](O)[C@@H](O)[C@@H](O[C@H]6[C@H](O)[C@@H](O)[C@@H](O[C@H]7[C@H](O)[C@@H](O)[C@@H](O[C@H]8[C@H](O)[C@@H](O)[C@@H](O[C@@H]1[C@@H](COCC(F)(F)F)O2)O[C@@H]8COCC(F)(F)F)O[C@@H]7COCC(F)(F)F)O[C@@H]6COCC(F)(F)F)O[C@@H]5COCC(F)(F)F)O[C@@H]4COCC(F)(F)F)O[C@@H]3COCC(F)(F)F [6-F3 βCD, Heptakis [6.0-(2,2,2-trifluoroethyl)]-β-cyclodextrin]
% Dose in tail ([1]; single i.v. 13.5 mg per mouse (tail vein), tail): 2.14 % Dose | % Dose in blood ([1]; single i.v. 13.5 mg per mouse, blood): 62.59 % Dose | % Dose in intestine ([1]; single i.v. 13.5 mg per mouse, intestine): 0.72 % Dose | % Dose in kidney ([1]; single i.v. 13.5 mg per mouse, kidney): 1.87 % Dose | % Dose in liver ([1]; single i.v. 13.5 mg per mouse, liver): 4.09 % Dose | % Dose in urine ([1]; single i.v. 13.5 mg per mouse, urine): 40.96 % Dose | metabolic degradation, share of the administered dose [2]: less than 5%
